Earlier results, collected in patent publication US20100105139A1, “Ligand Targeted Nanocapsules for the delivery of RNAi and other Agents” (priority 2008, published 2010).

Tested on: advanced stage melanoma
Conditions: melanoma patients

COc1cccc2c1C(=O)c1c(O)c3c(c(O)c1C2=O)C[C@@](O)(C(=O)CO)C[C@@H]3O[C@H]1C[C@H](N)[C@H](O)[C@H](C)O1 [DOX, Doxorubicin]
response rates: essentially ineffective
